How the values were obtained:
Format in all cases: in vivo
C57BL/6J mice [1] = test: Two-bottle choice ethanol drinking (non-stressed) under systemic UNC0642
Procedure: Animal Care. Adult male C57BL/6J mice (Jackson Laboratory, Bar Harbor, Me.) were singly housed in a climate-controlled environment (21° C.) on a 12h light-dark cycle. Animals were habituated to the housing environment for at least 7 days prior to use in experiments, and had food and water ad libitum. All drinking and behavioral experiments were performed during the dark cycle as described below, and were approved by the MUSC Institutional Animal Care and Use Committee (IACUC) in facilities accredited by the American Association for the Accreditation of Laboratory Animal Care (AAALAC). All procedures were conducted in accordance with the guidelines established by the National Institutes of Health and the National Research Council.
(§1) Systemic G9A inhibitor administration and stress-potentiated drinking. […] Mice were then divided into 2 even groups and given chronic injections of either vehicle or 4 mg/kg UNC0642 for 2 weeks similar to a previous in vivo study in mice (Wang et al., 2018). Next, following 3 days of withdrawal, control mice were injected with 5 mg/kg U50,488 only and chronic treated mice were given both U50,488 and UNC0642 in the same injection 30 minutes before the session. This test was repeated again the following day and then only vehicle injections were given to all mice for the next 3 days before two-bottle choice testing. Finally, after another 3 day withdrawal, an acute injection of UNC0642+U50,488 was given to the naïve control group while U50,488 alone was administered to the chronic UNC0642 group 30 minutes before drinking.
Systemic EHMT2/G9A Inhibition Suppresses Stress-induced Ethanol Drinking Since reducing EHMT2/G9A levels in the NAc blocked stress-regulated ethanol drinking in mice, we tested whether systemic delivery of a specific EHMT2/G9A methyltransferase inhibitor, UNC0642 (Liu et al, 2013), could block stress-potentiated ethanol drinking. Wild-type mice were allowed to drink ethanol for 2 weeks prior to repeated, daily injections of UNC0642 (4 mg/kg; i.p.) given 30 minutes prior to the 2-bottle choice sessions (FIG. 5A). […]

C57BL/6J mice [2] = test: U50,488 (kappa agonist) stress-potentiated two-bottle choice ethanol drinking under systemic UNC0642
Procedure: as §1
Systemic EHMT2/G9A Inhibition Suppresses Stress-induced Ethanol Drinking Since reducing EHMT2/G9A levels in the NAc blocked stress-regulated ethanol drinking in mice, we tested whether systemic delivery of a specific EHMT2/G9A methyltransferase inhibitor, UNC0642 (Liu et al, 2013), could block stress-potentiated ethanol drinking. Wild-type mice were allowed to drink ethanol for 2 weeks prior to repeated, daily injections of UNC0642 (4 mg/kg; i.p.) given 30 minutes prior to the 2-bottle choice sessions (FIG. 5A). […] Mice were then allowed to continue ethanol drinking for one additional week before the UNC0642-naïve mice (former vehicle control group) were injected with either vehicle or UNC0642 (4 mg/kg; i.p.) and tested for U50,488-potentiated ethanol drinking.
Since UNC0642 (4 mg/kg, i.p.) blocked stress-regulated ethanol drinking in mice as shown above, it was next tested whether this effect was dose-dependent and if it worked similarly in both sexes. There are reported sex/gender differences in the risk of developing several neuropsychiatric conditions, including AUD, SUD, and mood disorders, and while there was no a priori expectation of a sex-difference in UNC0642 efficacy in reducing stress-potentiated alcohol drinking, we wished to confirm that the treatment would be effective in both males and females. Similar to the studies described hereinabove (FIG. 5A), wild-type mice (both male and female) were allowed to drink ethanol for 2 weeks prior to repeated, daily injections of UNC0642 (4 mg/kg; 2 mg/kg, 1 mg/kg, or 0 mg/kg (vehicle), i.p.) given 30 minutes prior to the 2-bottle choice sessions. […]

mice = test: Sucrose pellet self-administration, extinction and cue-induced reinstatement
Procedure: Mice were first injected with UNC0642 (2 mg/kg, i.p) or vehicle-alone once daily for 10 days. Thirty minutes following the 10th dose, they began the first 2-hour sucrose self-administration session. The UNC0642 and vehicle injections occurred 30 minutes before the start of each sucrose self-administration, extinction, and reinstatement session. All self-administration experiments occurred in standard operant chambers with two nose-poke detectors, a house light, and a cue light and tone generator (Med Associates, Fairfield, Vt.). All sucrose-paired nose-pokes, including those during the timeout, were recorded and are reported as “paired nose pokes”. No fasting occurred during any stage of the experiment. During the 2-hour sessions, mice were trained to nose-poke in the paired side on a fixed-ratio 1 (FR1) schedule with 15-second timeout period after delivery of a single sucrose pellet. Concurrent with the pellet delivery, a cue tone and cue light (which is located immediately above the paired nose-poke port) are activated. All mice had ten self-administration sessions. […] Finally, we examined the number of nose-pokes on the paired side during timeout periods. Similar to the paired nose-poke data above, there was a slight effect on the interaction between UNC0642 treatment and sex. […] Overall, UNC0642 had no effect on sucrose-taking behavior as all groups increased their responding for sucrose pellets over time, and they learned and remembered the relationship between the reinforced (sucrose-paired) and the non-reinforced (unpaired) ports.
Sucrose-seeking behaviors were next tested in these same mice. Following a 7-day period in the home cage with ad libitum food and water, all mice began extinction training for 6 consecutive days (a model of context-associated sucrose-seeking behavior). […] Finally, light/tone cue-induced reinstatement behavior (a model of discreet cue-induced sucrose-seeking behavior) was tested one day after the 6th extinction session in a single 2-hour session. Mice were allowed to nose-poke for light and tone cues without receiving pellets. […] We also found UNC0642 had no effect on UNC0642 on the number of unpaired nose pokes during cue induced reinstatement of sucrose pellet self-administration (FIG. 9J; Three-Way ANOVA, Day: F1,26=6.739, p=0.0153, Sex: F1,26=6.739, p=0.0153, no other significant effects) and UNC0642 had no effect on the discrimination ratio between paired and unpaired nose pokes during cue-induced reinstatement of sucrose pellet self-administration (FIG. 9K; Three-Way ANOVA, Sex: F1,26=5.880, p=0.0226, no other significant effects).

SMILES: COc1cc2c(NC3CCN(C(C)C)CC3)nc(N3CCC(F)(F)CC3)nc2cc1OCCCN1CCCC1 [UNC0642, 2-(4,4-Difluoropiperidin-1-yl)-6-methoxy-N-[1-(propan-2-yl)piperidin-4-yl]-7-[3-(pyrrolidin-1-yl)propoxy]quinazolin-4-amine]
- ethanol drinking during the first week of daily UNC0642 injections (week 3) (C57BL/6J mice [1]; 4 mg/kg i.p. daily, 30 min before 2-bottle choice session, vs vehicle, FIG. 5B): significant reduction
- ethanol intake in the second week of daily drug treatments (week 4) (C57BL/6J mice [1]; 4 mg/kg i.p. daily, vs vehicle control, FIG. 5B): no difference
- baseline two-bottle choice alcohol drinking during daily UNC0642 injections (C57BL/6J mice [1]; 1, 2 or 4 mg/kg i.p. daily, male and female mice, weeks 3-5, FIG. 7A): no effect
- U50,488-potentiated ethanol drinking, chronic UNC0642 2 mg/kg (C57BL/6J mice [2]; 2 mg/kg i.p. daily, male and female mice, both sexes similarly, FIG. 7B): suppressed
- U50,488-potentiated ethanol drinking, chronic UNC0642 4 mg/kg (C57BL/6J mice [2]; 4 mg/kg i.p. daily, male and female mice, both sexes similarly, FIG. 7B): suppressed
- U50,488-potentiated ethanol drinking, chronic UNC0642 treatment (C57BL/6J mice [2]; chronic 4 mg/kg i.p. for 2 weeks, U50,488 5 mg/kg i.p. 30 min before session, FIG. 5C): suppressed
- U50,488-potentiated ethanol drinking, single (acute) injection of UNC0642 (C57BL/6J mice [2]; single 4 mg/kg i.p. with U50,488 5 mg/kg in UNC0642-naive mice, FIG. 5D): failed to influence stress-potentiated drinking
- number of sucrose pellets earned during sucrose pellet self-administration (mice; 2 mg/kg i.p. once daily, 30 min before session, FR1, FIG. 9A): no effect
- number of paired nose pokes during extinction learning following sucrose pellet self-administration (mice; 2 mg/kg i.p., 6 extinction days, FIG. 9F): no effect
- number of unpaired nose pokes during sucrose pellet self-administration (mice; 2 mg/kg i.p., FIG. 9C): no effect
- discrimination ratio between paired and unpaired nose pokes during sucrose pellet self-administration (mice; 2 mg/kg i.p., FIG. 9D): no effect
- unpaired nose-pokes during extinction learning following sucrose pellet self-administration (mice; 2 mg/kg i.p., FIG. 9G): no effect
- discrimination ratio between paired and unpaired nose pokes during extinction learning (mice; 2 mg/kg i.p., FIG. 9H): no effect
- number of paired nose pokes during cue induced reinstatement of sucrose pellet self-administration (mice; 2 mg/kg i.p., FIG. 9I): no effect
- number of unpaired nose pokes during cue induced reinstatement of sucrose pellet self-administration (mice; 2 mg/kg i.p., FIG. 9J): no effect
- discrimination ratio between paired and unpaired nose pokes during cue-induced reinstatement (mice; 2 mg/kg i.p., FIG. 9K): no effect
- paired nose-pokes during self-administration, female mice (mice; 2 mg/kg i.p., female mice in UNC0642 group, Day X Treatment interaction, FIG. 9B): slight increase
- timeout responding, female mice (mice; 2 mg/kg i.p., female mice in UNC0642 group, FIG. 9E): slightly higher
- number of paired nose pokes during sucrose pellet self-administration (mice; 2 mg/kg i.p., overall, FIG. 9B): no overall effect
- number of timeout responses on the paired nose port during sucrose pellet self-administration (mice; 2 mg/kg i.p., overall, FIG. 9E): no overall effect
